These results are taken from patent publication US10973245B2, “Immunomodulatory and growth promoting and controlling composition of intestinal microbiota undesirable bacteria and its use” (YESSINERGY HOLDING S/A, priority 2016, dated 2021).

Marks after values point to notes of the source that are not given here.

A short description of assay [1]: Piglet performance with growth promoting additives (Example 4). It counts as in vivo, PIC genetics. The settings on record: piglets 22 to 64 days of age. On the procedure:
(§1) Composition of Example 4 was tested in piglets to evaluate their performance ratio in comparison with growth promoter antibiotic (GPA) and with sodium butyrate. All were added to the rations of the respective treatments as growth promoting additives.
(§2) Sixty-three piglets were weaned at 22 days of age, with a start average body weight of 5.48 kg, both sexes, PIC genetics. The animals were separated by sex and distributed into 3 treatments, with 7 replicates of 3 animals each, during the whole period (22 to 64 days of age). Diet was formulated without Zinc Oxide or any other antimicrobial.
(§3) T1: Basal Diet+GPA (colistin 8%—40 ppm)
(§4) T2: Basal Diet+Sodium Butyrate 30% (1 kg/t)
(§5) T3: Basal Diet+Composition of the Invention of Example 4 (2 kg/t)

For assay [2], the system named is sulfite-reducing Clostridium. Description: Sulfite-reducing Clostridium CFU count in cecum fecal material of challenged chickens (Examples 8, 9, 10). It counts as in vivo. The conditions noted are these: cecum fecal material at 28 days; colony forming units. From the text: Compositions of examples 8, 9 and 10 were used as growth promoting additives for growing chicken feeds, i.e., during the first 28 days of life, to evaluate the control of Salmonella heidelbergii. On the fourth day of life, 20% of the birds were inoculated with Salmonella heidelbergii. At the end of the 28 days, fecal material was collected from the cecum of the birds and the counting of colony forming units (CFUs) of Salmonella and sulfite-reducing Clostridium.
The treatments were as follows:
T1: Basal Diet+SH Challenge—WITHOUT GPA (growth promoting antibiotic)
T2: Basic Diet+SH+APC Challenge (Enramicima 8 ppm)
T3: Basal Diet+SH Challenge+Sodium Butyrate (1.5 kg/t of feed)
T4: Basal Diet+Composition of the Invention of Example 8—3 kg/t
T5: Basal Diet+Composition of the Invention of Example 9—3 kg/t
T6: Basal Diet+Composition of the Invention of Example 10—3 kg/t
T7: Basal Diet+Composition of the Invention of Example 9—3 kg/t+Probiotic

Assay [3] can be described thus: Diarrhea index in piglets (Example 4). It counts as in vivo, PIC genetics. The procedure: as §1, §2, §3, §4, §5
Assay [4] in a line: Fatty acids in cecum of piglets (Example 4). It counts as in vivo, PIC genetics. On the procedure: as §1, §2, §3, §4, §5
A short description of assay [5]: Growth promoter additives in commercial broiler chicken diets (Examples 2 and 3 vs Zinc Bacitracin). It counts as in vivo, commercial broiler chickens. On the procedure: (§6) Formulations of examples 2 and 3 were administered to commercial broiler chickens, with an inclusion of 2 kg per ton of feed. The results are shown in Tables 12 (Diets with Zinc Bacitracin Antibiotic, As Growth Promoter Additives), 13 (Diets with the Composition of Example 2, as Growth Promoter Additives) and 14 (Diets with the Composition of Example 3, As Growth Promoter Additive) below.
(§7) Note: (*)—Salmonella Control Efficiency Index, measured by conducting a ‘propé’ [shoe covers] drag swab tests. Antibiotic=100 (**)—Zinc Bacitracin

The subject of assay [6] is Salmonella. In words: Salmonella Control Efficiency Index by 'propé' drag swab tests, commercial broiler chickens. It is filed as in vivo. The settings on record: Antibiotic=100. On the procedure: as §6, §7

For `CCCC(=O)[O-].[Na+]` [Sodium Butyrate], in assay [1], the “CA = feed conversion” value worked out at 2.07. The “Sulfite-reducing Clostridium” value in assay [2] is on record as 4959. Moreover, in assay [3] (Grade I), the Diarrhea index is given as 22^b. In addition, the Diarrhea index in assay [3] (Grade II) was 33^ab. The Diarrhea index in assay [3] (Grade III) is listed as 53^b. Also, in assay [4], the “Fatty acids in Cecum: Acetic” value was 0.38, the “Fatty acids in Cecum: Butyric” value was 0.18, the “Fatty acids in Cecum: Propionic” value is 0.32^a and the “Fatty acids in Cecum: Total” value is given as 0.87.
For Zinc Bacitracin, the “Feed Conversion” value stood at 1.69 in assay [5] (Average of Productions 1-4); 1.72 in assay [5] (Production 1); 1.71 in assay [5] (Production 2); 1.60 in assay [5] (Production 3); 1.72 in assay [5] (Production 4). Also, the “Final Average Body Weight” value was 3.11 kgBW/bird in assay [5] (Average of Productions 1-4); 3.14 kgBW/bird in assay [5] (Production 1); 3.07 kgBW/bird in assay [5] (Production 2); 3.20 kgBW/bird in assay [5] (Production 3); 3.01 kgBW/bird in assay [5] (Production 4). Besides, the “Food Intake” value came out at 5.159 kg/Bird in assay [5] (Average of Productions 1-4); 5.329 kg/Bird in assay [5] (Production 1); 5.167 kg/Bird in assay [5] (Production 2); 5.034 kg/Bird in assay [5] (Production 3); 5.105 kg/Bird in assay [5] (Production 4). In addition, the “Control of Salmonella (Salmonella Control Efficiency Index)” value in assay [6] (Average of Productions 1-4), in assay [6] (Production 1), in assay [6] (Production 2), in assay [6] (Production 3) and in assay [6] (Production 4) was 100 throughout.
